Results as given in ChEMBL document CHEMBL1131560, “Preparation of 9-deoxo-4"-deoxy-6,9-epoxyerythromycin lactams "motilactides": potent and orally active prokinetic agents” (Bioorg Med Chem Lett, 1998).

Legend:
Oryctolagus cuniculus = species: Oryctolagus cuniculus; assay: In vitro smooth muscle contractility using isolated rabbit duodenum; format: functional, Muscle tissue
[1] = Oral bioavailability in dog (conscious); format: ADME, organism-based, Canis lupus familiaris; settings: in vivo
[2] = Compound was evaluated for the half life period after oral administration in conscious dog.; format: ADME, organism-based, Canis lupus familiaris; settings: in vivo
Canis familiaris = species: Canis familiaris; assay: Effective dose was evaluated for gastrointestinal motor stimulating activity in dog; format: functional; settings: Canis lupus familiaris

| bioavailability [1] | half-life [2] | Structure (SMILES) | pED50 (Oryctolagus cuniculus) | ED50 (Canis familiaris) |
| --- | --- | --- | --- | --- |
| – | – | CC[C@H]1NC(=O)[C@H](C)[C@@H](O[C@H]2C[C@@](C)(OC)C[C@H](C)O2)[C@H](C)[C@@H](O[C@@H]2O[C@H](C)C[C@H](NC)[C@H]2O)[C@@]2(C)C[C@@H](C)[C@@H](O2)[C@H](C)[C@@H](O)[C@]1(C)O | 7.25 | – |
| – | – | CC[C@H]1NC(=O)[C@H](C)[C@@H](O[C@H]2C[C@@](C)(OC)C[C@H](C)O2)[C@H](C)[C@@H](O[C@@H]2O[C@H](C)C[C@H](N(C)CC(C)C)[C@H]2O)[C@@]2(C)C[C@@H](C)[C@@H](O2)[C@H](C)[C@@H](O)[C@]1(C)O | 6.88 | – |
| 40% | 3.3 h | CC[C@H]1NC(=O)[C@H](C)[C@@H](O[C@H]2C[C@@](C)(OC)C[C@H](C)O2)[C@H](C)[C@@H](O[C@@H]2O[C@H](C)C[C@H](N(C)C)[C@H]2O)[C@@]2(C)C[C@@H](C)[C@@H](O2)[C@H](C)[C@@H](O)[C@]1(C)O | 7.5 | – |
| – | – | CC[C@H]1NC(=O)[C@H](C)[C@@H](O[C@H]2C[C@@](C)(OC)C[C@H](C)O2)[C@H](C)[C@@H](O[C@@H]2O[C@H](C)C[C@H](N(C)CCF)[C@H]2O)[C@@]2(C)C[C@@H](C)[C@@H](O2)[C@H](C)[C@@H](O)[C@]1(C)O | 6.3 | – |
| 60.5% | 3.8 h | CC[C@H]1NC(=O)[C@H](C)[C@@H](O[C@H]2C[C@@](C)(OC)C[C@H](C)O2)[C@H](C)[C@@H](O[C@@H]2O[C@H](C)C[C@H](N(C)C(C)C)[C@H]2O)[C@@]2(C)C[C@@H](C)[C@@H](O2)[C@H](C)[C@@H](O)[C@]1(C)O | 8 | 0.036 mg/kg |
| – | – | CC[C@@H](O)[C@@](C)(O)C1OC(=O)[C@@H](C)[C@H](OC2C[C@@](C)(OC)C[C@H](C)O2)[C@H](C)[C@@H](O[C@@H]2O[C@H](C)C[C@H](N(C)C)[C@H]2O)[C@@H](C)[C@H]2O[C@H]([C@@H]2C)[C@@H]1C (some centres undefined) | 4.35 | – |
| – | – | CC[C@H]1NC(=O)[C@H](C)[C@@H](O[C@H]2C[C@@](C)(OC)C[C@H](C)O2)[C@H](C)[C@@H](O[C@@H]2O[C@H](C)C[C@H](N(C)CC(C)O)[C@H]2O)[C@@]2(C)C[C@@H](C)[C@@H](O2)[C@H](C)[C@@H](O)[C@]1(C)O (some centres undefined) | 6.6 | – |
| – | – | CC[C@H]1NC(=O)[C@H](C)[C@@H](O[C@H]2C[C@@](C)(OC)C[C@H](C)O2)[C@H](C)[C@@H](O[C@@H]2O[C@H](C)C[C@H](N(C)CCO)[C@H]2O)[C@@]2(C)C[C@@H](C)[C@@H](O2)[C@H](C)[C@@H](O)[C@]1(C)O | 6.6 | – |
| 5% | 4 h | CC[C@H]1OC(=O)[C@H](C)[C@@H](O[C@H]2C[C@@](C)(OC)C[C@H](C)O2)[C@H](C)[C@@H](O[C@@H]2O[C@H](C)C[C@H](N(C)C)[C@H]2O)[C@@]2(C)C[C@@H](C)[C@@H](O2)[C@H](C)[C@@H](O)[C@]1(C)O | 7.8 | – |
| – | – | CC[C@H]1NC(=O)[C@H](C)[C@@H](O[C@H]2C[C@@](C)(OC)C[C@H](C)O2)[C@H](C)[C@@H](O[C@@H]2O[C@H](C)C[C@H](N(C)CC)[C@H]2O)[C@@]2(C)C[C@@H](C)[C@@H](O2)[C@H](C)[C@@H](O)[C@]1(C)O | 7.11 | – |
| – | – | CC[C@H]1OC(=O)[C@H](C)[C@@H](O[C@H]2C[C@@](C)(OC)C[C@H](C)O2)[C@H](C)[C@@H](O[C@@H]2O[C@H](C)C[C@H](N(C)CC)[C@H]2O)[C@@]2(C)CC(C)=C(O2)[C@H](C)[C@@H](O)[C@H]1C [ALEMCINAL] | 7.22 | – |
| – | – | CC[C@H]1OC(=O)[C@H](C)[C@@H](O[C@H]2C[C@@](C)(OC)[C@@H](O)[C@H](C)O2)[C@H](C)[C@@H](O[C@@H]2O[C@H](C)C[C@H](N(C)C)[C@H]2O)[C@](C)(O)C[C@@H](C)C(=O)[C@H](C)[C@@H](O)[C@]1(C)O [ERYTHROMYCIN] | 5.85 | – |
